Source: US20250296953A1, “3,4-THIAZOLO-STEROIDS AND METHODS OF MAKING AND USING THE SAME” (Arkansas State University - Jonesboro, priority 2018, published 2025)

Legend:
Experiment in all cases: Melanoma cytotoxicity assay (resazurin)
Type in all cases: cell-based
SK-MEL-5 = conditions: for SK-MEL-5 (% inhibition): SK-MEL-5 melanoma cells, 24 hours with compound, resazurin, concentration not given
How it was run: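 ~4000 cells/well, 24 h attach, 37° C/5% CO2; cpd triplicate, 24 h; resazurin 6 h; fluor 544/590 nm. % viability vs DMSO after media-blank subtraction; IC50 from dilution series, sigmoidal fit.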

LOX IMVI = test system: LOX IMVI
How it was run: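 Following 24 h of compound treatment (triplicates, 37° C, 5% CO2) of cells seeded one day earlier at about 4000 per well, viability was gauged with resazurin. IC50 values derive from sigmoidal concentration–viability curves.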

MALME-3M = conditions: human, 24 h
How it was run: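 MALME-3M cells (~4000/well) seeded 24 h, then exposed to compound in triplicate for 24 h at 37° C, 5% CO2. Resazurin added for 6 h, fluorescence read at 544/590 nm; background-subtracted viability normalised to DMSO wells. IC50 from sigmoidal fit of serial dilutions.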

For `C[C@]12CCc3sc(NCCc4ccccc4)nc3C1=CC[C@@H]1[C@@H]2CC[C@]2(C)C(=O)CC[C@@H]12` [IIa.2, (1S,2R,13R,14S,18S)-2,18-dimethyl-7-(2-phenylethylamino)-6-thia-8-azapentacyclo [11.7.0.02,10.05,9.014,18]icosa-5(9),7,10-trien-17-one], which “SK-MEL-5 (% inhibition)” value (SK-MEL-5) is on record?
Its value is 73%.

Which “SK-MEL-5 (% inhibition)” value (SK-MEL-5) does the source give for “(1S,2R,13R,14S,18S)-7-(3-fluoroanilino)-2,18-dimethyl-6-thia-8-azapentacyclo[11.7.0.02,10.05,9.014,18]icosa-5(9),7,10-trien-17-one [IIa.8]” here?
The value was 84%.

What about the “LOX-IMVI (% inhibition)” value (LOX IMVI; LOX IMVI melanoma cells, 24 hours with compound, resazurin, concentration not given) of the same molecule?
The value was 79%.

And the IC50 (LOX IMVI; LOX IMVI melanoma cells, 24 hours, resazurin)?
The IC50 was greater than 20 µM.

`C[C@]12CC[C@H]3[C@@H](CC=C4c5sc(Nc6ccccc6)nc5CC[C@@]43C)[C@@H]1CC[C@@H]2O` [IIIa.10, (1S,2R,13R,14S,17S,18S)-7-anilino-2,18-dimethyl-8-thia-6-azapentacyclo[11.7.0.02,10.05,9.014,18]icosa-5(9),6,10-trien-17-ol] was tested. Which “SK-MEL-5 (% viability)” value (SK-MEL-5; human, 24 h) did it give?
Its value is 14.72%.

And the “LOX-IMVI (% viability)” value (LOX IMVI; human, 24 h)?
The value was 27%.

What about the “MALME-3M (% viability)” value (MALME-3M) of the same molecule?
The value was 68.28%.

With `C[C@]12CCc3sc(Nc4ccc(OC(F)(F)F)cc4)nc3C1=CC[C@@H]1[C@@H]2CC[C@]2(C)C(=O)CC[C@@H]12` [IIa.19, (1S,2R,13R,14S,18S)-2,18-dimethyl-7-[4-(trifluoromethoxy)anilino]-6-thia-8-azapentacyclo[11.7.0.02,10.05,9.014,18]icosa-5(9),7,10-trien-17-one] as the molecule, how does the “SK-MEL-5 (% inhibition)” value (SK-MEL-5) read?
Its value is 43%.

With `C[C@]12CCc3sc(Nc4ccc(F)cc4F)nc3C1=CC[C@@H]1[C@@H]2CC[C@]2(C)C(=O)CC[C@@H]12` [IIa.10, (1S,2R,13R,14S,18S)-7-(2,4-difluoroanilino)-2,18-dimethyl-6-thia-8-azapentacyclo[11.7.0.02,10.05,9.014,18]icosa-5(9),7,10-trien-17-one] as the molecule, how does the “SK-MEL-5 (% inhibition)” value (SK-MEL-5) read?
Its value is 48%.
